In patent US7375130B2, “Antidiabetic compounds comprising benzofuran and benzothiophene derivatives” (Merck Patent Gesellschaft mit beschrankter Haftung, priority 2003, dated 2008):

Columns and labels:
[1] = tested on: INS1; experiment: Insulin secretion test (SEC INS1) according to Endocrinology, 1992 vol. 130 (1) pp. 167-178; format: cell-based; settings: Rattus norvegicus, compounds tested at 10^-5 M, read-out: SEC INS1 (insulin-secreting activity)
Method: Insulin Secretion Test According to the Method Described in Endocrinology, 1992 vol. 130 (1) pp. 167-178
The compounds according to the invention were tested at 10^−5 M.
The insulin-secreting activities are collated in Table B.

[2] = tested on: isolated islets of Langerhans; experiment: Insulin secretion in isolated rat islets of Langerhans in static incubation, as a function of the glucose concentration; format: cell-based; settings: 90 minutes incubation, RIA, relative to glucose alone; for Insulin secretion stimulation factor, Product + G 2.8 mM: glucose 2.8 mM; for Insulin secretion stimulation factor, Product + G 8 mM: glucose 8 mM
Method: Study of the Activity on Isolated Rat Islets
Effect of the chemical compounds on insulin secretion as a function of the glucose concentration, in vitro, in isolated islets of Langerhans in static incubation (Table C):
The islets of Langerhans obtained by digestion of exocrine pancreatic tissue with collagenase, and then purified on Ficoll gradient, are incubated for 90 minutes in the presence of two concentrations of glucose, (2.8 mM or 8 mM), in the presence or absence of the chemical compound. The insulin secretion is assayed by RIA in the incubation medium.
The potential of the various chemical compounds to stimulate insulin secretion is estimated by calculating the stimulation factor*.
A compound stimulates the secretion of insulin if this factor is greater than or equal to 130% for a given dose of glucose.
where: • G=secretion of insulin (pmol/min. islet) in the presence of glucose alone • G+product=secretion of insulin (pmol/min. islet) in the presence of the same concentration of glucose and of the test chemical compound.

Row | SMILES | activity at 10 µM [1] [%] | also measured
1 | CCOC(=O)c1sc2ccccc2c1OCC(=O)c1ccccc1OC [Product 3] | 320 | –
2 | CCOC(=O)c1sc2ccccc2c1OCC(=O)c1ccc(F)cc1 [Product 7] | 257 | –
3 | CCOC(=O)c1sc2ccccc2c1OCC(=O)c1cccc(OC)c1 [Product 8] | 252 | –
4 | CCOC(=O)c1sc2ccccc2c1OC(C)C(=O)c1ccccc1 (stereo not drawn) [Product 10] | 225 | –
5 | CCOC(=O)c1sc2ccccc2c1OCC(=O)c1ccc(OC)cc1OC [Product 11] | 258 | –
6 | CCOC(=O)c1sc2ccccc2c1OCC(=O)C(C)(C)C [Product 12] | 230 | Insulin secretion stimulation factor, Product + G 2.8 mM ([2]; dose 10^-5 M): 93%; Insulin secretion stimulation factor, Product + G 8 mM ([2]; dose 10^-5 M): 186%; Insulin secretion stimulation factor, Product + G 2.8 mM ([2]; dose 10^-6 M): 90%; Insulin secretion stimulation factor, Product + G 8 mM ([2]; dose 10^-6 M): 189%
7 | CCOC(=O)c1sc2ccccc2c1OCC(=O)c1ccc2ccccc2c1 [Product 13] | 240 | –
8 | CCOC(=O)c1sc2ccccc2c1OCc1cccc(C#N)c1 [Product 29] | 249 | –
